Results from PMC7443514 (Bioorganic & medicinal chemistry, 2020).
Like-named read-outs stand apart in the source and are kept apart here.

Columns and labels:
[1] = molecular target: T1, SARM1 TIR domain (bacterial lysate) (Homo sapiens, UniProt Q6SZW1); format: biochemical; settings: ENAD 0-400 μM; for Inhibition Mechanism: bacterially expressed TIR domain lysate
T1 sequence (Q6SZW1 561-724): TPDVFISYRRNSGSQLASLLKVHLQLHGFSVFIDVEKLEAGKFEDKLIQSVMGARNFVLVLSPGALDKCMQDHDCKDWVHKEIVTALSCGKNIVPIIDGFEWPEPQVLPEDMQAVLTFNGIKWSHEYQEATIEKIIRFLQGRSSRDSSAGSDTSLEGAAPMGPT

SARM1 = settings: substrate analog; cited from earlier work
[2] = molecular target: T2, purified SARM1 TIR domain (Homo sapiens, UniProt Q6SZW1); assay: Dose response, ENAD assay, purified TIR domain; format: biochemical; settings: purified TIR domain (20 μM), 500 μM ENAD
T2 sequence (Q6SZW1 561-724): T1 sequence (Q6SZW1 561-724)

[3] = molecular target: T1, SARM1 TIR domain (bacterial lysate); settings: cited from earlier work

C[C@H]1c2cccc(O)c2C(=O)C2=C(O)[C@]3(O)C(=O)C(C(N)=O)=C(O)[C@@H](N(C)C)[C@@H]3[C@@H](O)[C@@H]21.Cl [Doxycycline Hydrochloride, Doxycycline hydrochloride]
Inhibition Mechanism [1]: Noncompetitive

NC(=O)c1ccc[n+]([C@@H]2O[C@H](COP(=O)([O-])OP(=O)(O)OC[C@H]3O[C@@H](n4cnc5c4ncn4ccnc54)[C@H](O)[C@@H]3O)[C@@H](O)[C@H]2O)c1 [ENAD, Nicotinamide 1,N^6-ethenoadenine dinucleotide]
Km (SARM1): 35 ± 15 µM | kcat (SARM1): 0.05 ± 0.04 s⁻¹

NC(=O)N/N=C/c1ccc([N+](=O)[O-])o1 [Nitroflurazone]
Inhibition Mechanism [1]: Noncompetitive

Cl.Nc1ccc(/N=N/c2ccccc2)c(N)n1 [Phenazopyridine Hydrochloride, Phenazopyridine hydrochloride]
Inhibition Mechanism [1]: Competitive

[O-][n+]1ccccc1[S-].[O-][n+]1ccccc1[S-].[Zn+2] [Pyrithone Zinc, Pyrithone zinc]
Inhibition Mechanism [1]: Noncompetitive

[Cl-].[Cl-].[Zn+2] [Zinc Chloride, Zinc chloride]
IC50 [2]: 10 ± 1 µM | Inhibition Mechanism [3]: noncompetitive | Ki [3]: 3.3 ± 0.1 µM | Ki ([1]; bacterially expressed TIR domain (300 nM) lysate): 3.3 ± 0.1 µM | Inhibition Mechanism [1]: Noncompetitive
